Measured values taken from PubChem BioAssay (NCI).
Values joined by “and” are separate entries in the source; they are usually repeats but may differ in a detail not shown here. Identical values can stand only once.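 Test compounds were applied to cells in 96-well plates for 48 hours at 5 doses. GI50 is the concentration that inhibits growth by half. At the TGI there is no net growth.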

Experiments:
Experiment in all cases: inhibition of tumour cell growth, NCI panel, 48 h
HL-60(TB) leukemia = system: HL-60(TB) leukemia
SNB-19 CNS = system: SNB-19 CNS
A549 NSCLC = system: A549 NSCLC
OVCAR-8 ovarian = system: OVCAR-8 ovarian
EKVX NSCLC = system: EKVX NSCLC
SF-539 CNS = system: SF-539 CNS
HCC-2998 colon = system: HCC-2998 colon
MDA-MB-435 = system: MDA-MB-435
RPMI-8226 leukemia = system: RPMI-8226 leukemia
NCI-H460 lung = system: NCI-H460 lung
HOP-62 NSCLC = system: HOP-62 NSCLC
RXF 393 renal = system: RXF 393 renal

SMILES	TGI (HL-60(TB) leukemia) [µM]	TGI (SNB-19 CNS) [µM]	TGI (A549 NSCLC) [µM]	TGI (OVCAR-8 ovarian) [µM]	TGI (EKVX NSCLC) [µM]	TGI (SF-539 CNS) [µM]	TGI (HCC-2998 colon) [µM]	TGI (MDA-MB-435) [µM]	TGI (RPMI-8226 leukemia)	TGI (NCI-H460 lung) [µM]	TGI (HOP-62 NSCLC) [µM]	TGI (RXF 393 renal) [µM]	GI50 (A549 NSCLC) [µM]	GI50 (OVCAR-8 ovarian) [µM]	GI50 (HOP-62 NSCLC) [µM]	GI50 (RXF 393 renal) [µM]	GI50 (MDA-MB-435) [µM]
Cc1ccc(OCC2OC(n3cnc4c(N(C)C)nc(Br)nc43)CC2Oc2ccc(C)cc2)cc1 (configuration not stated)	> 100	> 100	> 100	> 100	> 100	> 100	> 100	> 100	> 100 µM	> 100							
COc1ccccc1C1SCC(=O)N1c1ccc(-c2ccc(-n3c(-c4ccccc4)nc4ccccc4c3=O)cc2)cc1 (configuration not stated)	> 100	> 100	> 100	> 100	> 100	> 100	> 100	> 100	> 100 µM	> 100	> 100						
COc1cc(C2SCC(=O)N2c2ccc(-n3c(-c4ccccc4)nc4ccccc4c3=O)cc2)ccc1O (configuration not stated)	> 100	> 100	> 100	> 100	> 100	> 100	> 100	> 100	> 100 µM	> 100	> 100						
Cc1c2c(cc3c1[nH]c1ccccc13)C=NCC2	27.8	45.8	61.6	36.4	78.9	11.9	46.8		51.6 µM	27.7	56.4	16.4					
FC(F)(F)c1ccccc1N1CCN(c2nc(-c3cccs3)nc3ccc(Br)cc23)CC1	> 100	> 100	> 100	> 100	> 100	> 100	25	63.3	34.5 µM	> 100	> 100						
Cc1cc(O)c2c(c1O)C(=O)C13C(=C2O)C(=O)C2C(O)C1C1C(O)C3C(=O)C3=C(O)c4c(O)cc(C)c(O)c4C(=O)C321 (configuration not stated)			1.08	1.59	1.84	0.278	0.329		< 0.0312 µM		0.526	0.295					
CC(=O)[C@@H]1CCC=C2CC[C@]3(C)[C@@H](CC[C@@H]4[C@@]5(C)CCCNC(C)(C)[C@@H]5CC[C@]43C)[C@H]21			3.73	3.94				3.49			3.4	3.32	2.02	1.99	1.82	1.74	1.87
COc1cc2c(c(OC)c1OC)-c1ccc(SC)c(=O)cc1[C@@H](OC(C)=O)CC2	0.0242	> 100	> 100	> 100	> 100				> 59.9 µM	> 100	> 100	> 100					
Clc1ccc(Cc2nc3ccc(CCN4CCN(c5ccccc5)CC4)cc3[nH]2)cc1	> 100	41.6	33	36.3	79.9	33.5		26.6	54.5 µM	27.8	30.5	19.1					
C=C1C[C@@H](O)C[C@@]2(C)C[C@@H]3OC(=O)C(=C)[C@@H]3C[C@H]12	5.94	26.4	81	46.6		23.1	14.2		34.5 µM	> 58.6	53.4	20.3					
O=C1NC(N/N=C\C(O)C(O)C(O)CO)=N/C1=C/c1ccc(Cl)cc1 (configuration not stated)	> 100	> 100	> 100	> 100	> 100	> 100		> 100	> 100 µM and 94.3 µM	> 100	> 100	> 100					
CCOC(=O)/C(=C\c1ccc(N(C)C)cc1)S(=O)(=O)C(F)(F)C(F)(F)C(F)(F)C(F)(F)F	> 100	> 100	> 100	> 100	> 100	> 100	> 100	> 100	> 100 µM	> 100	> 100						
C=C1C(=O)OC2(C)C3CCC(C3)C12 (configuration not stated)	84.6	> 100	> 100	> 100	> 100	> 100	> 100		> 100 µM	> 100	> 100						
CCN(CC)CCCOC(=O)/C=C/c1c(C)[nH]c(=O)[nH]c1=O	> 625	> 625	> 625	> 625	> 625	> 625	> 625		> 625 µM	> 625	> 625	> 99.1					
O=c1/c(=C\c2ccccc2)sc2n1C(c1ccccc1)C1(O)CCCCC1N=2 (configuration not stated)	> 100	> 100	> 100	> 100			> 100	> 100	> 100 µM	> 100	> 100						
CCCCCCCCCCCCCCCCSCC(COC)COP(=O)([O-])OCC[N+](C)(C)C (configuration not stated)	4.4	9.6	20.5	22.3	28.4	29.7	3.56		8.48 µM	6.2	15.6	15.5					
Cc1ccnc2[nH]c(-c3cccc(Cl)c3)cc(=O)c12	0.0611	> 100	> 100	> 100	> 100		> 43			> 100	> 74.8	> 100					
O=C(Nc1cccc(C(F)(F)F)c1)O/N=C(/Cl)CCl	38.7	> 100	> 100	> 100	> 100	> 100	> 100		75.1 µM	> 100	> 100						
NC(=O)c1nnc2cc(F)ccc2c1N	> 100	> 100	> 100	> 100	> 100	> 100	> 100	> 100	> 100 µM	> 100	> 100						
C=CCOCn1cnc2c(N)ncnc21	> 100	> 100	> 100	> 100	> 100	> 100	> 100	> 100	> 100 µM	> 100	> 100						
CN(C(=O)Cc1ccc(Cl)c(Cl)c1)[C@H]1CCCC[C@@H]1[N+]1(C)CCCC1		> 100	> 100	> 100	> 100	> 100		> 100	> 100 µM		> 100						
COC(=O)c1cc(NC(=O)c2cc(NC(=O)c3cc([N+](=O)[O-])cn3C)cn2C)cn1C	> 100	> 100	> 100	> 100	> 100	> 100		> 100	> 100 µM	> 100	> 100	> 100					
Cc1ccc(S(=O)(=O)/N=C(\NN)Nc2ccc(Cl)cc2)cc1	> 100	> 100	> 100	> 100	> 100	> 100			> 100 µM	> 100	> 100	> 100					
CC(C)CCC[C@@H](C)[C@H]1CCC2C3CC=C4C[C@@H](Oc5c6ccccc6nc6ccccc56)CCC4C3CCC21 (some centres not stated)	> 50	> 50	> 50	> 50	> 50	> 50		> 50		> 50	> 50	> 50					
CCCCc1c(C(=O)OC(C)(C)C)cc(C#Cc2cc(C(=O)OC(C)(C)C)c(CCCC)c(C(=O)OC(C)(C)C)c2)cc1C(=O)OC(C)(C)C		> 100	> 100		> 100		> 100	> 100	> 100 µM	> 100	> 100						
CCC1C(c2cccc(OC)c2O)c2cc3c(cc2OC1N1CCCC1)OCO3 (configuration not stated)		46.9	54.7	89.9	> 100	27	21.9	15.9	34 µM	55.3	46.3						
COc1ccc(N2C(=Nc3ccccc3)SC(=N/S(=O)(=O)c3ccccc3)/C2=N\S(=O)(=O)c2ccccc2)cc1	33.4	57.5	46.5	39.6	61.2		42		50.8 µM	26.2	98.5	28.2					
CCOC(=O)Nc1c(C#N)[n+]([O-])c2cc(Cl)c(Cl)cc2[n+]1[O-]		65.9	69.8	37.2		30.9		36.6	16.7 µM	34.5	> 100	33					
Cn1c(C(C#N)c2nc(Cl)ncc2Br)nc2ccccc21 (configuration not stated)		> 100	> 100	> 100	> 100	> 100		> 100	> 100 µM	> 100	> 100	> 100					
CN1C(=S)C(c2ccccc2)Sc2ccccc21 (configuration not stated)	> 100	> 100	> 100	> 100	> 100			> 100	> 100 µM	> 100	> 100	> 100					
